In US9939427B2, “Method for evaluating the scent performance of perfumes or perfume mixtures” (Symrise AG, priority 2013, dated 2018):
Entries after “also recorded” stand apart in the source; their conditions may differ.

Legend:
OR5L1 = molecular target: T1, OR5L1 (Homo sapiens, UniProt Q8NGL2); test: Ca-imaging of OR5L1-transfected HEK293 cells; type: cell-based; set-up: key: ▪: 18 olfactory receptors responded to 32 odorants in related with specific anosmia; conditions: individual odorant 200 μM, significant response p<0.05
T1 construct: specific primers, which amplify the complete open reading frame; expressed in transfected cells; host or cells: HEK293
T1 sequence (Q8NGL2 whole entry): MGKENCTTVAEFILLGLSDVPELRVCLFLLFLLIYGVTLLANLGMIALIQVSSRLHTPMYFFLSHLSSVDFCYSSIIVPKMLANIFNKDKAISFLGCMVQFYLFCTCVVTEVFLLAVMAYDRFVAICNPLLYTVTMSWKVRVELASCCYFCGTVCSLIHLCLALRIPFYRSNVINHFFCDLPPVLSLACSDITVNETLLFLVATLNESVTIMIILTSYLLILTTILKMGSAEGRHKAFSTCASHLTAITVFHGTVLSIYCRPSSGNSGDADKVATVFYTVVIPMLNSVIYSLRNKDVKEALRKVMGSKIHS
Procedure: (§1) HEK293 cells were cultivated in Petri dishes (Ø35 mm) as previously described (Benbernou et al. 2007). We grow up HEK293 cells in culture medium containing standard DMEM with 10% heat-inactivated fetal bovine serum, 2 mM L-glutamine, 100 units/ml penicillin, and 100 units/ml streptomycin in a humidified atmosphere (37° C., 5% CO2). After 2-3 days, the transfection process was carried out, whereby the cell culture was 70-80% confluent. The calciumphosphate method was applied to transfect DNA plasmid transiently in HEK293 cells in case of Ca-imaging method.
(§2) Calcium cations and phosphate anions created crystal precipitations coupled with DNA which could invade into the cells through endocytosis. […]
(§3) Calcium imaging of the transfected HEK293 cells was done by using chambers determinate an inverted microscope (Olympus; IX70) using a 10× objective (CPIanFL N Olympus). Fluorescence emission was determined every 4 s by using a CCD camera (Charge Coupled Device, C9100 Hamamatsu). […] Odorants were manually monitored to drop each 4-5 s to transfected cells. […]
(§4) In experiments, Fura-2 Acetoxymethylester (Fura-2/AM) was applied. […] According to this feature, the analysis of 340/380 nm excitation ratio for Fura-2 allows to quantify intracellular calcium levels. […]

OR4C16 = molecular target: T2, OR4C16 (Homo sapiens, UniProt Q8NGL9); test: Ca-imaging of OR4C16-transfected HEK293 cells; type: cell-based; set-up: key to OR4C16 responded to odorant: ▪: 18 olfactory receptors responded to 32 odorants in related with specific anosmia
T2 construct: specific primers, which amplify the complete open reading frame; expressed in transfected cells; host or cells: HEK293
T2 sequence (Q8NGL9 whole entry): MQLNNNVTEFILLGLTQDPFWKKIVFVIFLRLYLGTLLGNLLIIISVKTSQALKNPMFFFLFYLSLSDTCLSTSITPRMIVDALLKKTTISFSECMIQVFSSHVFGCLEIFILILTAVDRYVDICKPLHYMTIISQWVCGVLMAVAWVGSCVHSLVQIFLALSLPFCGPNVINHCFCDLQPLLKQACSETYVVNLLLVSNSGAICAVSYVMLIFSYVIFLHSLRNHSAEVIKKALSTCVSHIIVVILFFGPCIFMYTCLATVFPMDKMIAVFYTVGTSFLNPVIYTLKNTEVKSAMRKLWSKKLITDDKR
Procedure: as §1, §2, §3, §4

OR1B1-789 = molecular target: T3, OR1B1-789 (Homo sapiens, UniProt Q8NGR6, C262W); test: Ca-imaging of mutant OR1B1-789 in HEK293 cells; type: cell-based; conditions: 200 μM, applied for 20 seconds
T3 construct: Full length primers included EcoRI and NotI restriction sites for further cloning into pCI expression vector; Rho-tag (N); expressed in transfected cells; host or cells: HEK293
T3 sequence (Q8NGR6 whole entry C262W): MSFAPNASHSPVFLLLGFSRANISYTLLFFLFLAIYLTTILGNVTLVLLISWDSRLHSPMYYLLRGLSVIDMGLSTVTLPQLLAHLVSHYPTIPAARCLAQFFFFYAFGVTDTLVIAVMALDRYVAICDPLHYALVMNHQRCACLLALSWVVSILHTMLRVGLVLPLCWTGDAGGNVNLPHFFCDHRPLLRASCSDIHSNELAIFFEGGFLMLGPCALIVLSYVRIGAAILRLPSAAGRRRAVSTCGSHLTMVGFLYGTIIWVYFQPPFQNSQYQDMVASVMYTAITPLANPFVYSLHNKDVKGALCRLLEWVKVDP
Text: (§5) Mutations were introduced for OR1B1 and OR10Q1 by Overlap Extension PCR (OEP). […] Flanking primers in combination with internal primers provided mutated gene segments, Full length primers included EcoRI and NotI restriction sites for further cloning into pCI expression vector. Site-directed mutations were selected for base of minor allele frequency of nucleotide.
(§6) In mutagenesis by overlap extension PCR method, initial PCRs provided mutated gene segments, with overlapping complementary 3′ ends carrying desired point mutation that were then mixed and used as template for a subsequent PCR to generate the full-length product. Overlapping strands of these intermediate products hybridize at this 3′ region in a subsequent PCR and are extended to generate the full-length product amplified by flanking primers; this shown in FIG. 2. […]
as §3, §4

[1] = test system: HEK293 cells transfected with all cofactors and pCI plasmids without ORs; test: Ca-imaging of control HEK293 cells without OR; type: cell-based; conditions: for Number of cell responses in controls (FIG. 8, 11, 12): 200 μM, steroid comparison
Procedure: as §1
(§7) Calcium cations and phosphate anions created crystal precipitations coupled with DNA which could invade into the cells through endocytosis. Cells were transiently transfected with plasmid DNA which consists of pCI expression vector and PCR-amplified full-length cDNA of olfactory receptors candidates, and also Gα15, RTP1, Myr-Ric8A, HSC70, and m-Cherry as cofactors. The precipitation could be created after 15-20 min, with dropping the transfection solution on HEK293 cells. Before measuring by Ca-imaging cells were incubated 48-60 hours at 370 C, 5% CO2. Cationic liposome-mediated transfection method was applied to transfect DNA plasmid transiently in HANA3A cells in case of CRE-Luciferase and CRE-SEAP assays.
(§8) Calcium imaging of the transfected HEK293 cells was done by using chambers determinate an inverted microscope (Olympus; IX70) using a 10× objective (CPIanFL N Olympus). Fluorescence emission was determined every 4 s by using a CCD camera (Charge Coupled Device, C9100 Hamamatsu). The capillary tube which was responsible to supply odorants was generated closely above the cells. The columns filled with odorants, DMSO and ATP. Odorants were manually monitored to drop each 4-5 s to transfected cells. Solutions with drop wise form spread on HEK293 cells in 35 mm dishes.
(§9) In experiments, Fura-2 Acetoxymethylester (Fura-2/AM) was applied. The non-polar Fura2/AM is fluorescent but not yet calcium-sensitive. Once diffuses into cell plasma, Fura-2/AM is hydrolyzed to Fura-2 which is calcium-sensitive and functions as Ca2+ chelator. Regardless of the presence of calcium, Fura-2 emits at the wavelength of 510 nm. Once Fura-2 binds to free intracellular Ca2+ in cell plasma, its ratio of excitation at wavelengths of 340 nm and 380 nm is changed and correlated to the amount of intracellular Ca2+. According to this feature, the analysis of 340/380 nm excitation ratio for Fura-2 allows to quantify intracellular calcium levels.
(§10) In preparation for Ca-imaging measurements, transfected HEK293 cells were added 3 it Fura2/AM (3 μM) and incubated 30-45 min at 370 C, 5% CO2. After this step, experiments were carried out in a dark condition (Fura-2 is light-sensitive). After the incubation, medium of cell culture was replaced with 2 ml Ringer's solution.
(§11) Odorants were freshly prepared with DMSO as 1 M stocks solutions. Six mixtures (200 μM each chemical) were applied to cells sequentially (20 s each mixture/30 s Ringer). Those ORs tested with single odorants that had generated a response to odorant mixture group previously. Odorants were prepared in 100-200 μM concentration.
(§12) Ringer's solution was used for washing cells between measuring by two different odorants. Positive response was determined by the timing of the response, the strength of the response (more than twofold higher than the noise amplitude of the baseline), and the shape of the response curve (sharp rise in curve with gradual recovery). The typical shape of response curves was established by observing responses to repeated stimulation with 200 μM of odorants. After testing with single odorants at 100 μM, stimulating odorants were often retested at 200 μM concentrations. To confirm the result of every receptor that produced a significant response curves, the experiment was repeated for twelve times. Finally, cells were exposed to ATP (0.25 mM) which could activate P2Y receptor channel and induce Ca2+ influx into cells. […]

OR1B1 = molecular target: T4, OR1B1 (Homo sapiens, UniProt Q8NGR6); test: Ca-imaging of OR1B1-transfected HEK293 cells; type: cell-based; set-up: key to OR1B1 responded to odorant: ▪: 18 olfactory receptors responded to 32 odorants in related with specific anosmia; conditions: for Number of cell responses of OR1B1 (FIG. 8): 200 μM, approximately 2000 cells in three times of measuring, steroid comparison; for Response of OR1B1 to odorant, in words: single odorants 200 μM; for Number of cell responses, Experiment (OR1B1): odorant 200 μM, approximately 2000 transfected cells in three times of measuring (Table 4, FIG. 5)
T4 construct: specific primers, which amplify the complete open reading frame; expressed in transfected cells; host or cells: HEK293
T4 sequence (Q8NGR6 1-317): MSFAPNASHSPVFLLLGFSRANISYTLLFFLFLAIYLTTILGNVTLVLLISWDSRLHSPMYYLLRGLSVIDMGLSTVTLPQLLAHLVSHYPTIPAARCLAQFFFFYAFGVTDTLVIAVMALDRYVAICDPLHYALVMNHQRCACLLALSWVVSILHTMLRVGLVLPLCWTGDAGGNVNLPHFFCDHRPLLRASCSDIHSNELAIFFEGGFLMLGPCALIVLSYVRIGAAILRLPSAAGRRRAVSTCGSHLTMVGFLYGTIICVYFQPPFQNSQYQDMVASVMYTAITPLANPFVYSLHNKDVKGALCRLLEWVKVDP
Procedure: as §1, §7, §8, §9, §10, §11, §12

OR1B1-574 = molecular target: T5, OR1B1-574 (Homo sapiens, UniProt Q8NGR6); test: Ca-imaging of mutant OR1B1-574 in HEK293 cells; type: cell-based; conditions: 200 μM, applied for 20 seconds
T5 construct: Rho-tag (N); expressed in transfected cells; host or cells: HEK293
Text: as §5, §6, §3, §4

OR1B1-688 = test: Ca-imaging of mutant OR1B1-688 in HEK293 cells; type: cell-based, human; conditions: 200 μM, applied for 20 seconds
Text: as §5, §6, §3, §4

OR4C3 = molecular target: T6, OR4C3 (Homo sapiens, UniProt Q8NH37); test: Ca-imaging of OR4C3-transfected HEK293 cells; type: cell-based; set-up: key: ▪: 18 olfactory receptors responded to 32 odorants in related with specific anosmia; conditions: individual odorant 200 μM, significant response p<0.05
T6 construct: specific primers, which amplify the complete open reading frame; expressed in transfected cells; host or cells: HEK293
T6 sequence (Q8NH37 whole entry): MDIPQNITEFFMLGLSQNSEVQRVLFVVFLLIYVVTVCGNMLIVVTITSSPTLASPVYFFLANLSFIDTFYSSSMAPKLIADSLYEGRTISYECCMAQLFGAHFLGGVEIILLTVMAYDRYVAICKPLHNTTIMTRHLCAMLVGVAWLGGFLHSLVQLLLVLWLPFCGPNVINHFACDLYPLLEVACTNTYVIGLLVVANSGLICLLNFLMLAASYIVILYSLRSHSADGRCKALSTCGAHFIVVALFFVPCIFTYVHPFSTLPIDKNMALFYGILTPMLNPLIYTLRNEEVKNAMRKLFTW
Procedure: as §1, §2, §3, §4

OR10C1 = molecular target: T7, OR10C1 (Homo sapiens, UniProt Q96KK4); test: Ca-imaging of OR10C1-transfected HEK293 cells; type: cell-based; set-up: key: ▪: 18 olfactory receptors responded to 32 odorants in related with specific anosmia; conditions: individual odorant 200 μM, significant response p<0.05
T7 construct: specific primers, which amplify the complete open reading frame; expressed in transfected cells; host or cells: HEK293
T7 sequence (Q96KK4 whole entry): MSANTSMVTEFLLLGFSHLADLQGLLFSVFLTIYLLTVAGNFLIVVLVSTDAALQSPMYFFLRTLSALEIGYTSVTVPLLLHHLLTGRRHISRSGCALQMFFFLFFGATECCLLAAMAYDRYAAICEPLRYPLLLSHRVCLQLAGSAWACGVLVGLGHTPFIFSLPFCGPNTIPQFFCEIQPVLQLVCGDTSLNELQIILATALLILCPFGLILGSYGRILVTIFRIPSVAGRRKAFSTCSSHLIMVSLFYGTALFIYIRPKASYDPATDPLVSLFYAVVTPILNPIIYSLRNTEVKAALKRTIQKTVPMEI
Procedure: as §1, §2, §3, §4

OR5I1 = molecular target: T8, OR5I1 (Homo sapiens, UniProt Q13606); test: Ca-imaging of OR5I1-transfected HEK293 cells; type: cell-based; set-up: key to OR5I1 responded to odorant: ▪: 18 olfactory receptors responded to 32 odorants in related with specific anosmia
T8 construct: specific primers, which amplify the complete open reading frame; expressed in transfected cells; host or cells: HEK293
T8 sequence (Q13606 whole entry): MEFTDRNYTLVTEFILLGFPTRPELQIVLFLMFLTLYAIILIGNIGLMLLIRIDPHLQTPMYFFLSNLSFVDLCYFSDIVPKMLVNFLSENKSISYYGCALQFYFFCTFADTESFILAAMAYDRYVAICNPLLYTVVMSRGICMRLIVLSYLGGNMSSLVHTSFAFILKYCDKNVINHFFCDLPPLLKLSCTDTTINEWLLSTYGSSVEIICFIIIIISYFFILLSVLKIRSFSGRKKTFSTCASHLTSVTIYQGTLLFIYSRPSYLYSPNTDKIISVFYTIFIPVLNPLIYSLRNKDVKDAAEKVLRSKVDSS
Procedure: as §1, §2, §3, §4

[2] = HEK293 cells, individual odorant 200 μM, significant response p<0.05

With `CCCCCC1CCC(=O)O1` (centres unmarked) [Aldehyde C18] the “OR5L1 responded to odorant” value (OR5L1) was “▪”, the “OR4C16 responded to odorant” value (OR4C16; [2]) was “▪” and the “Response of OR4C16 to odorant, in words” value (OR4C16; single odorants 200 μM) was “responded”.

For `C[C@]12CCC(=O)C[C@@H]1CC[C@@H]1[C@@H]2CC[C@]2(C)C=CC[C@@H]12` [Androstenon, 5α-Androst-16-en-3-one], the “Response of OR1B1-789 in comparison to OR1B1 WT” value (OR1B1-789; listed as androstenone) was “no significantly different responses; also recorded: did not show any significant difference”, the “Number of cell responses in controls (FIG. 8, 11, 12)” value [1] was 3 and the “Number of cell responses, Control” value ([1]; odorant 200 μM, three times of measuring (Table 4, FIG. 5)) was 0. For the same compound, the “Number of cell responses of OR1B1 (FIG. 8)” value (OR1B1) was 13, the “OR1B1 responded to odorant” value (OR1B1; Ca-imaging, HEK293 cells, individual odorant 200 μM, significant response p<0.05) was “▪” and the “Response of OR1B1 to odorant, in words” value (OR1B1; Ca-imaging, listed as androstenone) was “significantly (P<0.05) activated; also recorded: responded”. The “Number of cell responses, Experiment (OR1B1)” value (OR1B1; listed as Andorestenone) was 20, the “Number of cell responses, Experiment (OR1B1)” value (OR1B1; listed as androstenone) was 35 and the “Response of OR1B1-574 in comparison to OR1B1 WT” value (OR1B1-574) was “not able to reproduce responses”. The “Response of OR1B1-688 in comparison to OR1B1 WT” value (OR1B1-688; listed as androstenone) was “no significantly different responses; also recorded: did not show any significant difference”.

In the case of `C/C=C/C(=O)C1=C(C)CCCC1(C)C` [B-Damascone, β-Damascone], the “OR5L1 responded to odorant” value (OR5L1) is reported as “▪” and the “OR4C3 responded to odorant” value (OR4C3) is reported as “▪”.

In the case of `CCCCCC1C(=O)CCC1CC(=O)OC` (centres unmarked) [Hedione, Hedion], the “OR10C1 responded to odorant” value (OR10C1) is reported as “▪”.

For `CC(C)CCC(=O)O` [Isocaproic acid], the “OR4C3 responded to odorant” value (OR4C3) was “▪”.

`CCCCCCCC=O` [Octanal] was tested, and the “OR5I1 responded to odorant” value (OR5I1; [2]) was “▪” and the “Response of OR5I1 to odorant, in words” value (OR5I1; single odorants 200 μM) was “responded”.

In the case of `CCC(C)=O` [Odorant 2-butanone, 2-Butanone], the “OR10C1 responded to odorant” value (OR10C1) is reported as “▪”.

For `C[C@]12CC[C@H]3[C@@H](CCC4=CC(=O)CC[C@@]43C)[C@@H]1CC[C@@H]2O` [testosterone], the “Response of OR1B1-789 in comparison to OR1B1 WT” value (OR1B1-789) was “no significantly different responses; also recorded: did not show any significant difference”, the “Number of cell responses in controls (FIG. 8, 11, 12)” value [1] was 1 and the “Number of cell responses of OR1B1 (FIG. 8)” value (OR1B1) was 12. For the same compound, the “Response of OR1B1 to odorant, in words” value (OR1B1; Ca-imaging) was “responded”, the “Response of OR1B1-574 in comparison to OR1B1 WT” value (OR1B1-574) was “not able to reproduce responses” and the “Response of OR1B1-688 in comparison to OR1B1 WT” value (OR1B1-688) was “no significantly different responses; also recorded: did not show any significant difference”.
